Reference: US5236837A, “Enzymatic reagent for D-malate determination” (Boehringer Mannheim GmbH, priority 1989, dated 1993)
Where two headings read alike, the source gives them in different places.

Legend:
[1] = tested on: D-malic enzyme from Pseudomonas fluorescens; conditions: cited from earlier work
[2] = molecular target: T1, NAD+-dependent D-malate dehydrogenase (decarboxylating, E.C. 1.1.1.83) from E. coli (D-MDH, E. coli DSM 5496) (Escherichia coli, UniProt P76251); assay: Km determination and EDTA effect on the enzyme according to the invention; type: biochemical; conditions: EDTA 0.7 mg/ml test solution
T1 construct: two 42 kD subunits, full length, no tag
T1 sequence (P76251 1-361): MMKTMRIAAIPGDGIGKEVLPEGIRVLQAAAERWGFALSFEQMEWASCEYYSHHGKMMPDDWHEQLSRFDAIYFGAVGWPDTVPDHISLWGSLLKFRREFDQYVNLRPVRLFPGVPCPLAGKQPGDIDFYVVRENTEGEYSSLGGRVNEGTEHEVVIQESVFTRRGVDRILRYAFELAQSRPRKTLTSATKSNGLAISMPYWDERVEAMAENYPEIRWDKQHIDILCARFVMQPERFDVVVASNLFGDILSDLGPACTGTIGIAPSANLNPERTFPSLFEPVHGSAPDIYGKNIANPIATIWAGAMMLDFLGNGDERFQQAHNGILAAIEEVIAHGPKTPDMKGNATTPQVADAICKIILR

[3] = tested on: D-malic enzyme from E. coli K12 (Crookes strain); conditions: EDTA 3.3 μmol/ml; raw extract; cited from earlier work
[4] = substrate: O=C(O)C[C@@H](O)C(=O)O; assay: Km determination and EDTA effect on the enzyme according to the invention; type: biochemical, E. coli
[5] = substrate: NC(=O)c1ccc[n+]([C@@H]2O[C@H](COP(=O)([O-])OP(=O)(O)OC[C@H]3O[C@@H](n4cnc5c(N)ncnc54)[C@H](O)[C@@H]3O)[C@@H](O)[C@H]2O)c1; assay: as above; type: biochemical, E. coli; conditions: other: Tris, pH 8.5, 25° C., pH 8.5

## O=C(O)C[C@@H](O)C(=O)O [D-malate]
[1]; read-out: Km for malate
  Km: 300 µM

## O=C(O)CN(CCN(CC(=O)O)CC(=O)O)CC(=O)O [EDTA]
[2]
  Inhibition of enzyme activity by EDTA: not inhibited
[3]
  Inhibition of the reaction by EDTA: inhibited

## NC(=O)c1ccc[n+]([C@@H]2O[C@H](COP(=O)([O-])OP(=O)(O)OC[C@H]3O[C@@H](n4cnc5c(N)ncnc54)[C@H](O)[C@@H]3O)[C@@H](O)[C@H]2O)c1 [NAD^+]
[1]; read-out: Km for NAD+
  Km: 80 µM

B1: NAD+-dependent D-malate dehydrogenase (decarboxylating, E.C. 1.1.1.83) from E. coli (D-MDH, E. coli DSM 5496) (Escherichia coli K-12) (protein)
chain: MMKTMRIAAIPGDGIGKEVLPEGIRVLQAAAERWGFALSFEQMEWASCEYYSHHGKMMPDDWHEQLSRFDAIYFGAVGWPDTVPDHISLWGSLLKFRREFDQYVNLRPVRLFPGVPCPLAGKQPGDIDFYVVRENTEGEYSSLGGRVNEGTEHEVVIQESVFTRRGVDRILRYAFELAQSRPRKTLTSATKSNGLAISMPYWDERVEAMAENYPEIRWDKQHIDILCARFVMQPERFDVVVASNLFGDILSDLGPACTGTIGIAPSANLNPERTFPSLFEPVHGSAPDIYGKNIANPIATIWAGAMMLDFLGNGDERFQQAHNGILAAIEEVIAHGPKTPDMKGNATTPQVADAICKIILR
notes: two 42 kD subunits, full length, no tag
[4]; other: HEPES, pH 9.0, 25° C., pH 9.0
  Km: 1500 µM
[4]; other: Tris, pH 8.5, 25° C., pH 8.5
  Km: 1100 µM
[5]
  Km: 400 µM
